Reference: patent publication US6930184B2, “Functional fluorescent dyes” (3M Innovative Properties Company, priority 2002, dated 2005)

What was measured:
[1] = Solubility in acetone; assay type: physicochemical; settings: acetone added until no undissolved dye remained
Method: Solubility of the dyes in acetone was determined by weighing a small amount of dye into a jar and adding small aliquots of acetone until no undissolved dye remained.

[2] = Solubility in acrylate monomer (fluorescence measurement); assay type: physicochemical
Method: Solubility of the dyes was determined in various acrylate monomers using standard fluorescence measurement techniques (SPEX Fluorolog-3 Spectrophotometer, SPEX Industries, Edison, N.J.).

[3] = acrylate monomer BMA (butyl methacrylate)
[4] = acrylate monomer LMA (lauryl methacrylate)

Solubility of dye in acetone [1]	Solubility of dyes in acrylate monomers [2, 3]	Solubility of dyes in acrylate monomers [2, 4]	SMILES
0.83 g acetone/mg of dye	1217 μg dye/mL of acrylate monomer	816 μg dye/mL of acrylate monomer	C=CC(=O)OCCn1c(=O)c2ccc3sc4ccccc4c4ccc(c1=O)c2c34 [AD-1]
11.6 g acetone/mg of dye	559 μg dye/mL of acrylate monomer	227 μg dye/mL of acrylate monomer	C=CC(=O)OCCn1c(=O)c2ccc3sc4ccccc4c4ccc(c1=O)c2c34 [AD-6]
0.83 g acetone/mg of dye	301 μg dye/mL of acrylate monomer	114 μg dye/mL of acrylate monomer	C=CC(=O)OCCn1c(=O)c2ccc3sc4ccccc4c4ccc(c1=O)c2c34 [AD-7]

SMILES	Solubility of dye in acetone [1]	Solubility of dyes in acrylate monomers [2, 3]	Solubility of dyes in acrylate monomers [2, 4]
C=CC(=O)OCCOc1cc2c3ccccc3c(=O)c3ccc4c5ccccc5sc1c4c32 [AD-4]	11.0 g acetone/mg of dye	–	–
C=CC(=O)OCCOc1cc2c3ccccc3c(=O)c3ccc4c5ccccc5sc1c4c32 [AD-5]	0.65 g acetone/mg of dye	–	–
